Laboratory results published in patent US20220105058A1, “USE OF 3-O-SULFAMATE-16,16-DIMETHYL-D-HOMOEQUILENIN TO TREAT ONCOLOGICAL DISEASES” (priority 2018, published 2022).
Values joined by “and” are separate entries in the source; they are usually repeats but may differ in a detail not shown here. Identical values can stand only once. “Also recorded” adds a separate entry of the source. Like-named read-outs stand apart in the source and are kept apart here. Marks after values point to notes of the source that are not given here.

Tests used:
[1] = tested on: MCF-7 human cells culture (breast adenocarcinoma); experiment: proliferation of passaged MCF-7 cell culture; type: cell-based
Procedure: The study analysis was carried out on an passaged MCF-7 human cells culture culture (breast adenocarcinoma). Normal human dermal fibroblasts (HDF) of early passages were used as a negative control. The cells were cultivated in Carrel vials in DMEM/F12 medium (Biolot) with 1.0% of antibiotic-free fetal bovine embryonic serum (Biolot) added in the 5% CO2 atmosphere, at 37° C.
The cells were seeded on Carrel vials at 50×10^4 cells per flask. To study the proliferative activity of the cells under conditions of sulfatase inhibition, 24 hours after seeding the culture medium […], and then these tumor cell lines were incubated for various periods of time (24 to 72 hrs). The inhibitor was dissolved in DMSO. […] To exclude the cytotoxic effect of DMSO, a control sample comprising DMSO without sulfatase inhibitor was prepared. To exclude nonspecific detrimental effects of the compounds, normal human skin fibroblasts were used. Then the cells were detached with the versene-trypsin solution (Biolot), plated onto Carrel vials containing a fresh complete culture medium. The cells were counted when untreated control cells reached the maximum cell density per unit of surface area of a culture flask (monolayer), and their number was set as 100%. The proliferative activity of all of the studied cell cultures exposed to sulfatase inhibitors was determined in triplicate.

[2] = tested on: Breast tumors (BT) in female FBV/N mice transgenic for HER-2/neu; experiment: antitumor activity in mice with HER-2/neu breast tumors; type: in vivo, FVB mice transgenic for HER-2/neu; details: Tamoxifen 4 mg/kg
Source text: The age of animals at the beginning of the study was 21-41 weeks and weight was 25-30 g.
The control groups were given the olive oil (placebo).
TGI=(Vctrl−Vexp)/Vctrl×100(%),

[3] = tested on: subcutaneous xenografts of human SKBR-3 breast cancer
Procedure: (§1) A comparative study of the medicaments in vivo was performed in female Balb/c nude mice with subcutaneously (s.c.) transplanted tumor cells. The experiment lasted for 29 days after the medicament administration for the first time (the administration of the medicaments was started on Day 5 after the tumor strain transplantation).
(§2) The medicament and the reference drug were administered intragastrically multiple times at doses of 30 mg/kg and 10 mg/kg daily for 21 days.
(§3) The placebo group was given 1% starch solution intragastrically in equivalent volumes and in the same regime. Tumor nodes were measured 2 times per week. […] Once the treatment was completed, the last tumor measurement was carried out, and animals were weighed and euthanized.
(§4) The animals were weighed on the first day of the experiment, and then 2 times per week throughout the experiment according to the research protocol.
(§5) A tumor node was measured after tumor transplantation 2 times per week throughout the experiment. The tumor node volume was determined by the formula:
(§6) V=π/6*L*W*H, where L, W, H are the linear size dimensions of the tumor.
(§7) Determination of Antitumor Activity
(§8) Tumor growth inhibition index (TGI) was used as a criterion for the study of the medicament efficacy and calculated by the formula as follows:
(§9) TGI (%)=|Vctrl−Vexp|/Vctrl*100
(§10) where Vctrl and Vexp are the average tumor volume (mm^3) in the control and in the experimental groups, respectively.
(§11) After the course of the treatment, the animals were euthanized by the cervical dislocation of cervical vertebrae.
(§12) The statistical data processing was conducted using SPSS 21 package (license No. 20130626-3). Descriptive statistics in the study includes the following: arithmetic average, standard deviation (SD), standard mean error (SE), median, quartiles, interquartile range. To compare quantitative characteristics in the groups, the Mann-Whitney-Wilcoxon test was used without corrections for multiple comparisons. The results were considered statistically significant at p<0.05.

[4] = tested on: subcutaneous xenografts of human TNBC-Kad breast cancer
Procedure: as §1, §2, §3, §4, §5, §6, §7, §8, §9, §10, §11, §12

Compound: CC/C(=C(\c1ccccc1)c1ccc(OCCN(C)C)cc1)c1ccccc1 [Tamoxifen]
- proliferation of tumor MCF-7 cells [1]: inhibited to the same extent
- Average volume of new tumors at the end of observation period (M) [2]: 0.20 cm^3
- average total volume of tumors, % changes from baseline ([2]; 28 days): 338%
- average volume of tumors, % changes from baseline ([2]; 28 days): 338%
- TGI (average total tumor volume) ([2]; Day 0): 44%
- TGI (average tumor volume) ([2]; Day 0): 24%
- average total volume of tumors in mice (M) ([2]; Day 0): 1.26 cm^3
- average volume of tumors (M) ([2]; Day 0): 0.29 cm^3
- TGI (average total tumor volume) ([2]; Day 7): 33%
- TGI (average tumor volume) ([2]; Day 7): 8%
- average total volume of tumors in mice (M) ([2]; Day 7): 2.01 cm^3
- average volume of tumors (M) ([2]; Day 7): 0.46 cm^3
- TGI (average total tumor volume) ([2]; Day 14): 32%
- TGI (average tumor volume) ([2]; Day 14): 7%
- average total volume of tumors in mice (M) ([2]; Day 14): 2.84 cm^3
- average volume of tumors (M) ([2]; Day 14): 0.65 cm^3
- TGI (average total tumor volume) ([2]; Day 21): 36%
- TGI (average tumor volume) ([2]; Day 21): 12%
- average total volume of tumors in mice (M) ([2]; Day 21): 3.23 cm^3
- average volume of tumors (M) ([2]; Day 21): 0.75 cm^3
- TGI (average total tumor volume) ([2]; Day 28): 5%
- TGI (average tumor volume) ([2]; Day 28): −31%
- average total volume of tumors in mice (M) ([2]; Day 28): 5.52 cm^3
- average volume of tumors (M) ([2]; Day 28): 1.27* cm^3
- Total number of new tumors ([2]; end of experiment): 32
- frequency of tumor stabilizations ([2]; end of observation): 3%
- average tumor volume (M ± m) ([3]; Tamoxifen 10 mg/kg, Day 0): 0.7±0.1 mm^3
- average tumor volume (M ± m) ([3]; Tamoxifen 10 mg/kg, Day 3): 1.0 ± 0.3 mm^3
- SKBR-3 growth inhibition, TGI ([3]; Tamoxifen 10 mg/kg, Day 7): 63.9%
- average tumor volume (M ± m) ([3]; Tamoxifen 10 mg/kg, Day 7): 7.2±3.9 mm^3
- SKBR-3 growth inhibition, TGI ([3]; Tamoxifen 10 mg/kg, Day 10): 56.9%
- average tumor volume (M ± m) ([3]; Tamoxifen 10 mg/kg, Day 10): 33.4±16.1 mm^3
- SKBR-3 growth inhibition, TGI ([3]; Tamoxifen 10 mg/kg, Day 14): 60.6%
- average tumor volume (M ± m) ([3]; Tamoxifen 10 mg/kg, Day 14): 47.5±16.8 mm^3
- SKBR-3 growth inhibition, TGI ([3]; Tamoxifen 10 mg/kg, Day 17): 68.9%
- average tumor volume (M ± m) ([3]; Tamoxifen 10 mg/kg, Day 17): 58.0±18.2 mm^3
- SKBR-3 growth inhibition, TGI ([3]; Tamoxifen 10 mg/kg, Day 21): 45.4%
- average tumor volume (M ± m) ([3]; Tamoxifen 10 mg/kg, Day 21): 145.5 ± 70.9 mm^3
- SKBR-3 growth inhibition, TGI ([3]; Tamoxifen 10 mg/kg, Day 24): 9.5%
- average tumor volume (M ± m) ([3]; Tamoxifen 10 mg/kg, Day 24): 211.1 ± 94.0 mm^3
- average tumor volume (M ± m) ([3]; Tamoxifen 30 mg/kg, Day 0): 0.9±0.2 mm^3
- average tumor volume (M ± m) ([3]; Tamoxifen 30 mg/kg, Day 3): 2.0 ± 0.4 mm^3
- SKBR-3 growth inhibition, TGI ([3]; Tamoxifen 30 mg/kg, Day 7): 6.2%
- average tumor volume (M ± m) ([3]; Tamoxifen 30 mg/kg, Day 7): 18.8±7.4 mm^3
- SKBR-3 growth inhibition, TGI ([3]; Tamoxifen 30 mg/kg, Day 10): 12.6%
- average tumor volume (M ± m) ([3]; Tamoxifen 30 mg/kg, Day 10): 67.6 ± 21.1 mm^3
- SKBR-3 growth inhibition, TGI ([3]; Tamoxifen 30 mg/kg, Day 14): 2.9%
- average tumor volume (M ± m) ([3]; Tamoxifen 30 mg/kg, Day 14): 117.1 ± 41.7 mm^3
- SKBR-3 growth inhibition, TGI ([3]; Tamoxifen 30 mg/kg, Day 17): −17.1%
- average tumor volume (M ± m) ([3]; Tamoxifen 30 mg/kg, Day 17): 218.3 ± 63.6 mm^3
- SKBR-3 growth inhibition, TGI ([3]; Tamoxifen 30 mg/kg, Day 21): −44.2% and −44.4%
- average tumor volume (M ± m) ([3]; Tamoxifen 30 mg/kg, Day 21): 384.8±103.2 mm^3
- SKBR-3 growth inhibition, TGI ([3]; Tamoxifen 30 mg/kg, Day 24): −68.1%
- average tumor volume (M ± m) ([3]; Tamoxifen 30 mg/kg, Day 24): 392.1 mm^3
- antitumor efficacy ([3]; pilot experiment, Tamoxifen 10 mg/kg): not effective
- effect on tumor growth ([3]; pilot experiment, Tamoxifen 10 mg/kg, Days 10 to 17): tumor growth stimulation was recorded
- tumor growth inhibition over the entire observation period ([4]; Tamoxifen 10 mg/kg): no tumor growth inhibition was detected; also recorded: is not effective
- average tumor volume (M ± m) ([4]; Tamoxifen 10 mg/kg, Day 0): 2.3±0.8 mm^3 and 2.33 ± 0.76 mm^3
- average tumor volume (M ± m) ([4]; Tamoxifen 10 mg/kg, Day 3): 25.61 ± 5.56 mm^3
- TNBC_Kad growth inhibition, TGI ([4]; Tamoxifen 10 mg/kg, Day 7): 0.5%
- average tumor volume (M ± m) ([4]; Tamoxifen 10 mg/kg, Day 7): 79.17 ± 18.80 mm^3
- TNBC_Kad growth inhibition, TGI ([4]; Tamoxifen 10 mg/kg, Day 10): −20.7%
- average tumor volume (M ± m) ([4]; Tamoxifen 10 mg/kg, Day 10): 122.09 ± 27.84 mm^3
- TNBC_Kad growth inhibition, TGI ([4]; Tamoxifen 10 mg/kg, Day 14): −18.4%
- average tumor volume (M ± m) ([4]; Tamoxifen 10 mg/kg, Day 14): 193.24 ± 54.10 mm^3
- TNBC_Kad growth inhibition, TGI ([4]; Tamoxifen 10 mg/kg, Day 17): −22.6%
- average tumor volume (M ± m) ([4]; Tamoxifen 10 mg/kg, Day 17): 237.32 ± 77.07 mm^3
- TNBC_Kad growth inhibition, TGI ([4]; Tamoxifen 10 mg/kg, Day 21): −7.9%
- average tumor volume (M ± m) ([4]; Tamoxifen 10 mg/kg, Day 21): 322.76 ± 88.25 mm^3
- average tumor volume (M ± m) ([4]; Tamoxifen 30 mg/kg, Day 0): 4.1±1.2 mm^3 and 4.14 ± 1.22 mm^3
- average tumor volume (M ± m) ([4]; Tamoxifen 30 mg/kg, Day 3): 17.12 ± 4.12 mm^3
- average tumor volume (M ± m) ([4]; Tamoxifen 30 mg/kg, Day 7): 44.1±8.8 mm^3 and 44.13 ± 8.81 mm^3
- TNBC_Kad growth inhibition, TGI ([4]; Tamoxifen 30 mg/kg, Day 10): 39.4%
- average tumor volume (M ± m) ([4]; Tamoxifen 30 mg/kg, Day 10): 61.37 ± 12.03 mm^3
- TNBC_Kad growth inhibition, TGI ([4]; Tamoxifen 30 mg/kg, Day 14): 26.8%
- average tumor volume (M ± m) ([4]; Tamoxifen 30 mg/kg, Day 14): 119.53 ± 18.54 mm^3
- TNBC_Kad growth inhibition, TGI ([4]; Tamoxifen 30 mg/kg, Day 17): 26.7%
- average tumor volume (M ± m) ([4]; Tamoxifen 30 mg/kg, Day 17): 141.85 ± 35.07 mm^3
- TNBC_Kad growth inhibition, TGI ([4]; Tamoxifen 30 mg/kg, Day 21): 33.3%
- average tumor volume (M ± m) ([4]; Tamoxifen 30 mg/kg, Day 21): 199.54 ± 43.55 mm^3
